In US20240002393A1, “SUBSTITUTED BENZO[f][l ,2,4JTRIAZOL0[4,3-a][l ,4J[…] GABA A GAMMA! POSITIVE ALLOSTERIC MODULATORS” (Hoffmann-La Roche Inc., priority 2020, published 2024):

Legend:
[1] = target: human GABAA α2β2γ1 receptor (Homo sapiens (Human), UniProt P47869+Q8N1C3); assay: Radioligand binding assay, [3H]RO7239181 competition, γ1-containing GABAA subtypes; conditions: for γ2/γ1 Selectivity Ratio: Ki α1β3γ2 (nM)/Ki α2β2γ1 (nM); for LogSel: Log[Ki α1β3γ2 (nM)/Ki α2β2γ1 (nM)]
Protocol: The affinity of compounds at GABAA γ1 subunit-containing receptors was measured by competition for [^3H]RO7239181 (67.3 Ci/mmol; Roche) binding to membranes from HEK293F cells (ThermoFisher R79007) expressing human (transiently transfected) receptors of composition α5β2γ1, α2β2γ1, α1β2γ1.
Harvested pellets from HEK293F cells expressing the different GABAA receptor subtypes were resuspended in Mannitol Buffer pH 7.2-7.4 (Mannitol 0.29M, Triethylamine 10 mM, Acetic acid 10 mM, EDTA 1 mM plus protease inhibitors (20 tablets Complete, Roche Diagnostics Cat. No. 05 056 489 001 per liter)), washed two times and then resuspended at 1:10 to 1:15 dilution in the same buffer. Cell disruption was performed by stirring the suspension in a Parr vessel #4637 at 435 psi for 15 minutes, and then the suspensions were centrifuged at 1000×g for 15 minutes at 4° C. (Beckman Avanti J-HC; rotor JS)-4.2). The supernatant (S1) was transferred in a 21 Schott flask and the pellet (P1) was resuspended with Mannitol Buffer up to 175 ml. The resuspended pellet was transferred into a 250 ml Corning centrifugal beaker and centrifuged at 1500×g for 10 minutes at 4° C. (Beckman Avanti J-HC; rotor JS)-4.2). The supernatant (S1) was then transferred in the 21 Schott flask and the pellet was discarded. The supernatants (S1) were centrifuged in 500 ml Beckman polypropylene centrifugal beaker at 15,000×g for 30 minutes at 4° C. (Beckman Avanti J-20 XP; rotor JLA-10.500). The pellet (P2) was resuspended with Mannitol Buffer 1:1 and frozen at −80° C. The supernatant (S2) was centrifuged in 100 ml Beckman polypropylene centrifugal tubes at 48000×g for 50 minutes at […] (Beckman Avanti J-20 XP; rotor JA-18). The supernatant (S3) was discarded and the pellet (P3) was resuspended with 1:1 Mannitol Buffer. The P2 and P3 protein concentration was determined with the BIORAD Standard assay method with bovine serum albumin as standard and measured on the NANO-Drop 1000. The membrane suspension was aliquots (500 μl per tube) and stored at −80° C. until required.
Membrane homogenates were resuspended and polytronised (Polytron PT1200E Kinematica AG) in Potassium Phosphate 10 mM, KCl 100 mM binding buffer at pH 7.4 to a final assay concentration determined with a previous experiment.
Assays were incubated to equilibrium for 1 hour at 4° C. and then, membranes were filtered onto unifilter (96-well white microplate with bonded GF/C filters preincubated 20-50 minutes in 0.3% Polyethylenimine) with a Filtermate 196 harvester (Packard BioScience) and washed 4 times with cold Potassium Phosphate 10 mM pH 7.4, KCl 100 mM binding buffer. After drying, filter-retained radioactivity was detected by liquid scintillation counting. K, values were calculated using Excel-Fit (Microsoft) and are the means of two determinations.

h-GABA-A α2β2γ1 = h-GABA-A α2β2γ1 (Homo sapiens (Human), UniProt P47869+Q8N1C3); assay: Two-electrode voltage clamp electrophysiology in Xenopus oocytes expressing GABAA receptors; format: cell-based; conditions: for potentiation of the GABA-induced current in α2βγ1 GABAA receptor subtype expressing oocytes: reference PAMs, GABA EC20
Protocol: Xenopus laevis oocytes at maturation stages V-VI were used for the expression of cloned mRNA encoding GABAA receptor subunits. Oocytes ready for RNA micro-injection were bought from Ecocyte, Castrop-Rauxel, Germany and stored in modified Barth's medium (composition in mM: NaCl 88, KCl 1, NaHCO3 2.4, HEPES 10, MgSO4 0.82, CaNO3 0.33, CaCl2 0.33, pH=7.5) at 20° C. until the experiment.
Oocytes were plated in 96-well plates for microinjection using the Roboinject automated instrument (MultiChannelSystems, Reutlingen, Germany). Approximately 50 nL of an aqueous solution containing the RNA transcripts for the subunits of the desired GABAA receptor subtype was injected into each oocyte. […] Oocytes were kept in modified Barth's medium (composition in mM: NaCl 88, KCl 1, NaHCO3 […], HEPES 10, MgSO4 0.82, CaNO3 0.33, CaCl2 0.33, pH=7.5) at 20° C. until the experiment.
Electrophysiological experiments were performed using the Roboocyte instrument (MultiChannelSystems, Reutlingen, Germany) on days 3 to 5 after the micro-injection of mRNA. During the experiment the oocytes were constantly superfused by a solution containing (in mM) NaCl 90, KCl 1, HEPES 5, MgCl2 1 CaCl2 1 (pH 7.4). Oocytes were impaled by two glass microelectrodes (resistance: 0.5-0.8 MΩ) which were filled with a solution containing KCl 1M+K-acetate 1.5 M and voltage-clamped to −80 mV. The recordings were performed at room temperature using the Roboocyte two-electrode voltage clamp system (Multichannelsystem). After an initial equilibration period of 1.5 min GABA was added for 1.5 min at a concentration evoking approximately 20% of a maximal current response (EC20). After another rest interval of 2.5 min GABA was again added evoking a response of similar amplitude and shape. […] Current traces were recorded at a digitization rate of 10 Hz during and shortly before and after the GABA application.
Each compound and concentration was tested on at least 3 oocytes. Different oocytes were used for different compound concentrations.
For the analysis, the digitized current traces of the first and second GABA response were superimposed and, if necessary, rescaled to equal maximal amplitudes. The ratio between the two responses during the time interval of test compound application was calculated point by point. The extremum of the resulting “ratio trace” was taken as the efficacy (“Fold increase”) of the compound expressed as “% modulation of GABA EC20” (100*(Fold increase−1)).

[2] = target: human GABAA α1β3γ2 receptor (Homo sapiens (Human), UniProt P14867+P18507); assay: Radioligand binding assay, [3H]Flumazenil competition, γ2-containing GABAA subtypes
Protocol: The affinity of compounds at GABAA γ2 subunit-containing receptors was measured by competition for [^3H]Flumazenil (81.1 Ci/mmol; Roche) binding to HEK293F cells expressing human (transiently transfected) receptors of composition α1β3γ2.
Harvested pellets from HEK293F cells expressing the different GABAA γ2 receptor subtypes were resuspended in Mannitol Buffer pH 7.2-7.4 and processed as described above for the cells expressing the GABAA γ1 subunit-containing receptors.
Assays were incubated to equilibrium for 1 hour at 4° C. and harvested onto GF/C uni-filters (Packard) by filtration using a Packard harvester and washing with ice-cold wash buffer (50 mM Tris; pH 7.5). After drying, filter-retained radioactivity was detected by liquid scintillation counting. Ki values were calculated using Exel-Fit (Microsoft) and are the means of two determinations.

| SMILES | γ2/γ1 Selectivity Ratio [1] | LogSel [1] | Efficacy (GABA)% (h-GABA-A α2β2γ1; % modulation of GABA EC20 = 100*(Fold increase−1), compound at 30-fold Ki) [%] | potentiation of the GABA-induced current in α2βγ1 GABAA receptor subtype expressing oocytes (h-GABA-A α2β2γ1) [%] | Ki [1] [nM] | Ki [2] [nM] |
| --- | --- | --- | --- | --- | --- | --- |
| Cc1nnc2n1-c1ccc(Cl)cc1C(c1ccccc1)=NC2 [Alprazolam, reference compound] | 0.0050 | −2.3 | – | – | – | – |
| Clc1ccc2c(c1)C(c1ccccc1)=NCc1nncn1-2 [Estazolam, reference compound] | 0.0089 | −2.0 | – | – | – | – |
| CCc1nnc2n1-c1ccc(C(F)(F)F)c(Cl)c1C(c1c(F)cccc1F)=N[C@H]2C [Example 108, (4S)-7-chloro-6-(2,6-difluorophenyl)-1-ethyl-4-methyl-8-(trifluoromethyl)-4H-[1,2,4]triazolo[4,3-a][1,4]benzodiazepine] | 50.4 | – | 94 | – | – | – |
| CN1C(=O)CN=C(c2ccccc2F)c2cc([N+](=O)[O-])ccc21 [Flunitrazepam, reference compound] | – | – | – | ~60 | – | – |
| Cc1ncc2n1-c1ccc(Cl)cc1C(c1ccccc1F)=NC2 [Midazolam, reference compound] | 0.0068 | −2.2 | – | ~60 | – | – |
| Cc1nnc2n1-c1ccc(Br)cc1C(c1c(F)cccc1F)=NC2 [RE-A, 8-bromo-6-(2,6-difluorophenyl)-1-methyl-4H-[1,2,4]triazolo[4,3-a][1,4]benzodiazepine, reference compound] | 0.18 | −0.74 | – | – | – | – |
| Cc1nnc2n1-c1ccc(C(F)(F)F)cc1C(c1c(F)cccc1F)=NC2 [RE-B, 6-(2,6-difluorophenyl)-1-methyl-8-(trifluoromethyl)-4H-[1,2,4]triazolo[4,3-a][1,4]benzodiazepine, reference compound] | 0.23 | −0.64 | – | – | – | – |
| Cc1nnc2n1-c1ccccc1C(c1c(F)cccc1F)=NC2 [RE-C, 6-(2,6-difluorophenyl)-1-methyl-4H-[1,2,4]triazolo[4,3-a][1,4]benzodiazepine, reference compound] | 0.0092 | −2.0 | – | – | – | – |
| Cc1nnc2n1-c1cccc(Cl)c1C(c1c(F)cccc1F)=N[C@H]2C [RE-D, (4S)-7-chloro-6-(2,6-difluorophenyl)-1,4-dimethyl-4H-[1,2,4]triazolo[4,3-a][1,4]benzodiazepine, reference compound] | 2.215 | 0.35 | – | – | 454 | 1010 |
| Cc1nnc2n1-c1ccc(Cl)cc1C(c1ccccc1Cl)=NC2 [Triazolam, reference compound] | – | −1.5 | – | ~60 | – | – |
